Data published in PubChem BioAssay (NCI).
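How tested: cells in 96-well plates exposed to compound for 48 hours at five concentrations. TGI is the concentration that stops growth completely.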

Columns and labels:
Experiment in all cases: NCI-60 cell line screen, 48 h
HCT-116 colon = test system: HCT-116 colon
IGROV1 ovarian = test system: IGROV1 ovarian
U251 CNS = test system: U251 CNS
MDA-MB-435 = test system: MDA-MB-435
HOP-62 NSCLC = test system: HOP-62 NSCLC
RXF 393 renal = test system: RXF 393 renal
COLO 205 colon = test system: COLO 205 colon
A498 renal = test system: A498 renal
DU-145 prostate = test system: DU-145 prostate
SF-539 CNS = test system: SF-539 CNS
HOP-92 NSCLC = test system: HOP-92 NSCLC
OVCAR-3 ovarian = test system: OVCAR-3 ovarian
OVCAR-5 ovarian = test system: OVCAR-5 ovarian
SK-MEL-28 melanoma = test system: SK-MEL-28 melanoma
OVCAR-4 ovarian = test system: OVCAR-4 ovarian
NCI-H522 lung = test system: NCI-H522 lung
SW-620 colon = test system: SW-620 colon
EKVX NSCLC = test system: EKVX NSCLC
MOLT-4 leukemia = test system: MOLT-4 leukemia
T-47D breast = test system: T-47D breast

Row | SMILES | TGI (HCT-116 colon) | TGI (IGROV1 ovarian) | TGI (U251 CNS) | TGI (MDA-MB-435) | TGI (HOP-62 NSCLC) | TGI (RXF 393 renal) | TGI (COLO 205 colon) | TGI (A498 renal) | TGI (DU-145 prostate) | TGI (SF-539 CNS) | TGI (HOP-92 NSCLC) | TGI (OVCAR-3 ovarian) | TGI (OVCAR-5 ovarian) | TGI (SK-MEL-28 melanoma) | TGI (OVCAR-4 ovarian) | TGI (NCI-H522 lung) | TGI (SW-620 colon) | TGI (EKVX NSCLC) | TGI (MOLT-4 leukemia) | TGI (T-47D breast)
1 | CCO/C=N\c1c(C#N)c(-c2ccc(Cl)cc2)cn1-c1ccc(C)cc1 | > 100 µM | > 100 µM | > 100 µM | > 100 µM | > 100 µM | > 100 µM | > 100 µM | > 100 µM | > 100 µM | > 100 µM | > 100 µM | > 100 µM | > 100 µM | > 100 µM | > 100 µM | > 100 µM | > 100 µM | > 100 µM | – | –
2 | COc1ccc(P2(=S)Oc3ccccc3-c3ccccc3O2)cc1 | > 38.7 µM | > 100 µM | > 100 µM | – | > 100 µM | – | 2.77 µM | 4.01 µM | > 100 µM | 0.537 µM | 85.3 µM | 0.493 µM | > 100 µM | > 100 µM | > 100 µM | – | > 100 µM | > 100 µM | > 100 µM | > 100 µM
3 | CC[C@H](Nc1c(O)c2c(c(O)c1Cl)C(=O)C=CC2=O)C(=O)OC | 5.89 µM | > 10 µM | > 10 µM | > 10 µM | > 10 µM | – | > 10 µM | – | > 10 µM | 9.29 µM | > 10 µM | > 10 µM | > 10 µM | – | > 10 µM | > 10 µM | > 10 µM | > 10 µM | 9.57 µM | –
4 | Nc1ccc2c(=O)cc(-c3cccs3)[nH]c2n1 | > 50.8 µM | > 100 µM | > 45.6 µM | – | > 100 µM | > 100 µM | 6.95 µM | > 100 µM | > 100 µM | 6.17 µM | > 100 µM | > 100 µM | > 100 µM | > 100 µM | > 100 µM | – | > 100 µM | > 100 µM | > 35.5 µM | > 100 µM
5 | Nc1nc(Cl)c(/C=N\O)c(NCC2(CO)CCC2)n1 | > 100 µM | – | > 100 µM | > 100 µM | > 100 µM | > 100 µM | > 100 µM | > 100 µM | > 100 µM | > 100 µM | > 100 µM | > 100 µM | > 100 µM | > 100 µM | > 100 µM | > 100 µM | > 100 µM | > 100 µM | 81.2 µM | –
6 | O=S(CC1(O)CCCCC1)c1ccccc1 (centres undefined) | > 100 µM | > 100 µM | > 100 µM | – | > 100 µM | > 100 µM | > 100 µM | – | > 100 µM | – | – | – | > 100 µM | > 100 µM | > 100 µM | > 100 µM | > 100 µM | > 100 µM | > 100 µM | > 100 µM
7 | CC(C)OP(=O)(OC(C)C)c1nc(-c2ccccc2)n(-c2ccc([N+](=O)[O-])cc2)n1 | > 100 µM | > 100 µM | > 100 µM | – | > 100 µM | – | > 100 µM | > 100 µM | – | > 100 µM | > 100 µM | > 100 µM | > 100 µM | > 100 µM | > 100 µM | > 100 µM | > 100 µM | > 100 µM | > 100 µM | –
8 | COc1cccc(/C=C2\CCCc3ccccc3C2=O)c1 | 27.9 µM | 46.3 µM | 29.3 µM | 30.1 µM | 31 µM | – | 35.6 µM | – | 60 µM | 32 µM | 43.2 µM | 34 µM | 38 µM | 41.1 µM | 28.5 µM | 40.3 µM | 35.5 µM | 50.2 µM | > 100 µM | –
9 | Nc1c2ccccc2nc2ccc3c(=O)cc(-c4ccccc4)oc3c12 | 0.306 µM | – | 1.46 µM | 2.39 µM | – | 2.91 µM | 1.35 µM | – | 3.74 µM | 2.34 µM | 2.59 µM | 2.85 µM | 2.85 µM | 3.21 µM | 1.1 µM | – | 0.34 µM | 2.8 µM | – | –
10 | O=P1(Oc2ccc(Cl)cc2Cl)Oc2ccc3ccccc3c2-c2c(ccc3ccccc23)O1 | > 75.1 µM | > 71.8 µM | 47.5 µM | – | 40 µM | 34.7 µM | > 100 µM | > 95.4 µM | – | 43 µM | 50.1 µM | 49.5 µM | > 100 µM | > 85.4 µM | 94.2 µM | 50.7 µM | > 100 µM | > 67.3 µM | 55.6 µM | –
11 | C=CCN1C(=O)/C(=C\c2cc(C(C)(C)C)c(O)c(C(C)(C)C)c2)NC1=S | 35.4 µM | > 100 µM | 32.7 µM | 70.8 µM | 51.5 µM | – | 32.4 µM | 90.8 µM | 90.3 µM | > 100 µM | > 100 µM | 39.6 µM | > 100 µM | > 100 µM | > 100 µM | 27.8 µM | > 100 µM | 65.1 µM | > 100 µM | –
12 | Nn1c(CCCCCCCCc2nnc(COc3ccc4ccccc4c3O)n2N)nnc1COc1ccc2ccccc2c1O | 29.3 µM | 38.3 µM | > 100 µM | > 100 µM | – | 80.3 µM | 35.1 µM | > 100 µM | > 100 µM | – | 60 µM | – | 37 µM | > 100 µM | > 100 µM | 42 µM | > 100 µM | > 100 µM | > 100 µM | –
13 | Clc1nssc1=Nc1nonc1-c1ccccc1 | > 100 µM | 82 µM | > 100 µM | > 100 µM | > 100 µM | 59.6 µM | 36.7 µM | > 100 µM | 53.5 µM | 66.1 µM | > 100 µM | > 100 µM | 49.3 µM | > 100 µM | > 100 µM | 43.4 µM | > 100 µM | > 100 µM | 69.8 µM | –
14 | COc1ccc2cc3[nH]c(=O)cc(O)c3cc2c1OC | > 100 µM | > 100 µM | > 100 µM | – | > 100 µM | > 100 µM | – | > 100 µM | – | > 100 µM | > 100 µM | > 100 µM | > 100 µM | > 100 µM | > 100 µM | – | > 100 µM | > 100 µM | > 100 µM | –
15 | COc1cccc(C2c3cc4c(cc3OC(N3CCOCC3)C2C)OCO4)c1OC (centres undefined) | 15.7 µM | 31.2 µM | – | 33.8 µM | 31.6 µM | – | 28.2 µM | – | 28.5 µM | 30.5 µM | – | 36.7 µM | 43.6 µM | 32 µM | – | 34.3 µM | > 100 µM | > 100 µM | 20 µM | 79.1 µM
16 | CN(C)CC1CN=C(N)O1 (centres undefined) | > 100 µM | – | > 100 µM | > 100 µM | > 100 µM | > 100 µM | > 100 µM | > 100 µM | > 100 µM | > 100 µM | > 100 µM | > 100 µM | > 100 µM | > 100 µM | > 100 µM | > 100 µM | > 100 µM | > 100 µM | > 100 µM | –
17 | Cn1c(=O)n2n(c1=O)C(S(=O)(=O)c1ccccc1)C2 (centres undefined) | > 100 µM | > 100 µM | > 100 µM | > 100 µM | > 100 µM | > 100 µM | > 100 µM | – | > 100 µM | > 100 µM | > 100 µM | > 100 µM | > 100 µM | > 100 µM | > 100 µM | > 100 µM | > 100 µM | > 100 µM | > 100 µM | –
18 | NC(=O)c1cc2ccc(O)cc2o/c1=N/NC(=O)c1ccccc1 | > 100 µM | > 100 µM | > 100 µM | > 100 µM | > 100 µM | > 100 µM | > 100 µM | > 100 µM | – | – | > 100 µM | > 100 µM | > 100 µM | > 100 µM | > 100 µM | > 100 µM | > 100 µM | > 100 µM | > 100 µM | 91.4 µM
19 | COC(=O)C1=CSC2(S1)C(C(=O)OC)=CSc1c2ssc1=O (centres undefined) | 3.16 µM | 2.9 µM | 3.02 µM | 4.34 µM | 17 µM | 3.62 µM | 4.03 µM | 12.5 µM | 3.3 µM | 3.17 µM | 4.27 µM | 3.55 µM | 21.9 µM | 5.23 µM | 3.81 µM | 3.14 µM | 2.93 µM | 14.5 µM | > 19.8 µM | –
20 | O=S(=O)(c1ccccc1)C(c1ccc2ccccc2n1)S(=O)(=O)c1ccccc1 | > 100 µM | > 100 µM | > 100 µM | – | > 100 µM | > 100 µM | > 100 µM | > 100 µM | > 100 µM | > 100 µM | > 100 µM | > 100 µM | > 100 µM | > 100 µM | > 100 µM | > 100 µM | > 100 µM | > 100 µM | > 100 µM | –
21 | COc1ccc(C2SCC(=O)N2NC(=O)c2ccncc2)cc1F (centres undefined) | > 100 µM | – | > 100 µM | – | > 100 µM | > 100 µM | > 100 µM | > 100 µM | – | – | > 100 µM | – | > 100 µM | > 100 µM | > 100 µM | > 100 µM | > 100 µM | – | – | –
22 | CC(=O)O/C=C1/C[C@H]2[C@@H]3CCC4CC(C(C)=O)CC[C@]4(C)[C@H]3CC[C@]2(C)C1=O (some centres undefined) | > 100 µM | > 100 µM | > 100 µM | > 100 µM | > 100 µM | > 100 µM | – | > 100 µM | > 100 µM | – | > 100 µM | 97.3 µM | > 100 µM | > 100 µM | > 100 µM | > 100 µM | > 100 µM | > 100 µM | > 100 µM | –
